Results from patent US20240025891A1 (Celgene Corporation, priority 2020, published 2024).

Each compound was assayed on Onchocerca gutturosa adult male worms (assay: Onchocerciasis in vitro screening model Onchocerca gutturosa (worm motility score and MTT/formazan colorimetry)). Settings: Onchocerca gutturosa, read-out: O. gutt Act class.

Structure (SMILES) | IC50 [nM]
FC(F)(F)c1ccnc(Nc2nc(-c3ccccn3)c(CN3CCCCC3)s2)c1 [Example 164, 5-(piperidin-1-ylmethyl)-4-(pyridin-2-yl)-N-(4-(trifluoromethyl)pyridin-2-yl)thiazol-2-amine] | < 200
OCc1sc(Nc2cc(C(F)(F)F)ccn2)nc1-c1ccccn1 [Example 165, (4-(pyridin-2-yl)-2-(4-(trifluoromethyl)pyridin-2-ylamino)thiazol-5-yl)methanol] | < 200
FC(F)(F)c1ccnc(Nc2nc(-c3ccccn3)c(COCC3CC3)s2)c1 [Example 166, 5-((cyclopropyl-methoxy)methyl)-4-(pyridin-2-yl)-N-(4-(trifluoromethyl)pyridin-2-yl) thiazol-2-amine] | 200 to 500
CCCCc1ccnc(Nc2nc(-c3ccccn3)cs2)c1 [Example 167, N-(4-butylpyridin-2-yl)-4-(pyridin-2-yl)thiazol-2-amine] | < 200
c1ccc(-c2csc(Nc3cc(C4CCC4)ccn3)n2)nc1 [Example 168, N-(4-cyclobutyl-pyridin-2-yl)-4-(pyridin-2-yl)thiazol-2-amine] | < 200
c1ccc(-c2csc(Nc3cc(-c4cccnn4)ccn3)n2)nc1 [Example 169, N-(4-(pyridazin-3-yl)pyridin-2-yl)-4-(pyridin-2-yl)thiazol-2-amine] | < 200
O=C(NC1CC1)c1ccnc(Nc2nc(-c3ccccn3)cs2)c1 [Example 170, N-cyclopropyl-2-(4-(pyridin-2-yl)thiazol-2-ylamino) isonicotinamide] | < 200
CNC(=O)c1ccc(-c2ccnc(Nc3nc(-c4ccccn4)cs3)c2)cc1 [Example 171, N-methyl-4-(2-(4-(pyridin-2-yl)thiazol-2-ylamino)pyridin-4-yl)benzamide] | < 200
CCCc1ccnc(Nc2nc(-c3ccccn3)cs2)c1 [Example 172, N-(4-propylpyridin-2-yl)-4-(pyridin-2-yl)thiazol-2-amine] | 200 to 500
c1ccc(-c2csc(Nc3cc(-c4cnccn4)ccn3)n2)nc1 [Example 173, N-(4-(pyrazin-2-yl)pyridin-2-yl)-4-(pyridin-2-yl)thiazol-2-amine] | < 200
c1ccc(-c2csc(Nc3cc(-c4ncccn4)ccn3)n2)nc1 [Example 174, 4-(pyridin-2-yl)-N-(4-(pyrimidin-2-yl)pyridin-2-yl)thiazol-2-amine] | 200 to 500
c1ccc(-c2csc(Nc3cc(-c4cccc5ccccc45)ccn3)n2)nc1 [Example 175, N-(4-(naphthalen-1-yl)pyridin-2-yl)-4-(pyridin-2-yl)thiazol-2-amine] | < 200
c1ccc(-c2csc(Nc3cc(C4CC4)ccn3)n2)nc1 [Example 176, N-(4-cyclopropyl-pyridin-2-yl)-4-(pyridin-2-yl)thiazol-2-amine] | < 200
O=C(NCC1CC1)c1ccnc(Nc2nc(-c3ccccn3)cs2)c1 [Example 177, N-(cyclopropyl-methyl)-2-(4-(pyridin-2-yl)thiazol-2-ylamino) isonicotinamide] | 500 to 5000
CCNC(=O)c1ccnc(Nc2nc(-c3ccccn3)cs2)c1 [Example 178, N-ethyl-2-(4-(pyridin-2-yl)thiazol-2-ylamino) isonicotinamide] | < 200
O=C(NC1CC(F)(F)C1)c1ccnc(Nc2ncc(-c3ccccn3)s2)c1 [Example 179, N-(3,3-difluoro-cyclobutyl)-2-(5-(pyridin-2-yl)thiazol-2-ylamino) isonicotinamide] | < 200
Cc1ccnc(Nc2nc(-c3ccccn3)c(CCOC3CCC3)s2)c1 [Example 180, 5-(2-cyclobutoxy-ethyl)-N-(4-methylpyridin-2-yl)-4-(pyridin-2-yl)thiazol-2-amine] | < 200
Cc1ccnc(Nc2nc(-c3ccccn3)c(C(C)(C)C)s2)c1 [Example 181, 5-tert-butyl-N-(4-methylpyridin-2-yl)-4-(pyridin-2-yl)thiazol-2-amine] | 200 to 500
Cc1ccnc(Nc2nc(-c3ccccn3)c(COCC3CCC3)s2)c1 [Example 182, 5-((cyclobutyl-methoxy)methyl)-N-(4-methylpyridin-2-yl)-4-(pyridin-2-yl)thiazol-2-amine] | 200 to 500
Cc1ccnc(Nc2nc(-c3ccccn3)c(CN3CCC3)s2)c1 [Example 183, 5-(azetidin-1-ylmethyl)-N-(4-methylpyridin-2-yl)-4-(pyridin-2-yl)thiazol-2-amine] | < 200
CCc1sc(Nc2cc(C)ccn2)nc1-c1ccccn1 [Example 184, 5-ethyl-N-(4-methylpyridin-2-yl)-4-(pyridin-2-yl)thiazol-2-amine] | < 200

Structure (SMILES) | IC50 [nM]
Cc1ccnc(Nc2nc(-c3ccccn3)c(CN3CCCC3)s2)c1 [Example 185, N-(4-methylpyridin-2-yl)-4-(pyridin-2-yl)-5-(pyrrolidin-1-ylmethyl) thiazol-2-amine] | 200 to 500
Cc1sc(Nc2cc(C(F)(F)F)c(C(C)C)cn2)nc1-c1ccccn1 [Example 186, N-(5-isopropyl-4-(trifluoromethyl)pyridin-2-yl)-5-methyl-4-(pyridin-2-yl)thiazol-2-amine] | < 200
C[C@@H]1CN(C(=O)c2sc(Nc3cc(C(F)(F)F)ccn3)nc2-c2ccccn2)C[C@H](C)O1 [Example 187, ((2S,6R)-2,6-dimethyl-morpholino) (4-(pyridin-2-yl)-2-(4-(trifluoromethyl)pyridin-2-ylamino)thiazol-5-yl)methanone] | < 200
C[C@@H]1CN(Cc2sc(Nc3cc(C(=O)NCC(F)(F)F)ccn3)nc2-c2ccccn2)C[C@H](C)O1 [Example 188, 2-(5-(((2S,6R)-2,6-dimethyl-morpholino)methyl)-4-(pyridin-2-yl)thiazol-2-ylamino)-N-(2,2,2-trifluoroethyl) isonicotinamide] | < 200
N#Cc1sc(Nc2cc(C(F)(F)F)ccn2)nc1-c1ccccn1 [Example 189, 4-(pyridin-2-yl)-2-(4-(trifluoromethyl)pyridin-2-ylamino) thiazole-5-carbonitrile] | 500 to 5000
O=C(c1sc(Nc2cc(C(F)(F)F)ccn2)nc1-c1ccccn1)N1CCC2(CC1)OCCO2 [Example 190, (4-(pyridin-2-yl)-2-(4-(trifluoromethyl)pyridin-2-ylamino)thiazol-5-yl)(1,4-dioxa-8-azaspiro[4.5]decan-8-yl)methanone] | 500 to 5000
CN1CCN(C(=O)c2sc(Nc3cc(C(F)(F)F)ccn3)nc2-c2ccccn2)CC1 [Example 191, (4-methylpiperazin-1-yl)(4-(pyridin-2-yl)-2-(4-(trifluoromethyl)pyridin-2-ylamino)thiazol-5-yl)methanone] | 500 to 5000
O=C(c1sc(Nc2cc(C(F)(F)F)ccn2)nc1-c1ccccn1)N1CCN2CCCC2C1 (stereo not drawn) [Example 192, (hexahydro-pyrrolo [1,2-a]pyrazin-2(1H)-yl)(4-(pyridin-2-yl)-2-(4-(trifluoromethyl)pyridin-2-ylamino)thiazol-5-yl)methanone] | 200 to 500
OCc1sc(Nc2cc(F)ccn2)nc1-c1ccccn1 [Example 193, (2-(4-fluoropyridin-2-ylamino)-4-(pyridin-2-yl)thiazol-5-yl)methanol] | < 200
CCc1sc(Nc2cccc(C(F)(F)F)n2)nc1-c1ccccn1 [Example 194, 5-ethyl-4-(pyridin-2-yl)-N-(6-(trifluoromethyl)pyridin-2-yl)thiazol-2-amine] | 500 to 5000
CN(C)Cc1sc(Nc2cc(C(F)(F)F)ccn2)nc1-c1ccccn1 [Example 195, 5-((dimethylamino)methyl)-4-(pyridin-2-yl) N-(4-(trifluoromethyl)pyridin-2-yl)thiazol-2-amine] | 200 to 500
C[C@@H]1CN(Cc2sc(Nc3cc(C(F)(F)F)ccn3)nc2-c2ccccn2)C[C@H](C)N1 [Example 196, 5-(((3R,5S)-3,5-dimethyl-piperazin-1-yl)methyl)-4-(pyridin-2-yl)-N-(4-(trifluoromethyl)pyridin-2-yl)thiazol-2-amine] | < 200
FC(F)(F)c1ccnc(Nc2nc(-c3ccccn3)c(CN3CCCC3)s2)c1 [Example 197, 4-(pyridin-2-yl)-5-(pyrrolidin-1-ylmethyl)-N-(4-(trifluoromethyl)pyridin-2-yl)thiazol-2-amine] | 500 to 5000
Cc1sc(Nc2cc(C(=O)NCC(F)(F)F)ccn2)nc1-c1ccccn1 [Example 198, 2-(5-methyl-4-(pyridin-2-yl)thiazol-2-ylamino)-N-(2,2,2-trifluoroethyl) isonicotinamide] | < 200
O=C(c1sc(Nc2cc(C(F)(F)F)ccn2)nc1-c1ccccn1)N1CCOCC1 [Example 199, morpholino(4-(pyridin-2-yl)-2-(4-(trifluoromethyl)pyridin-2-ylamino)thiazol-5-yl)methanone] | 500 to 5000
O=C(c1sc(Nc2cc(C(F)(F)F)ccn2)nc1-c1ccccn1)N1CCCCC1 [Example 200, piperidin-1-yl(4-(pyridin-2-yl)-2-(4-(trifluoromethyl)pyridin-2-ylamino)thiazol-5-yl)methanone] | 500 to 5000
C[C@@H]1CN(Cc2sc(Nc3cc(C(F)(F)F)ccn3)nc2-c2ccccn2)C[C@H](C)O1 [Example 201, 5-(((2R,6S)-2,6-dimethyl-morpholino)methyl)-4-(pyridin-2-yl)-N-(4-(trifluoromethyl)pyridin-2-yl)thiazol-2-amine] | < 200
O=C(NCC1CCOCC1)c1sc(Nc2cc(C(F)(F)F)ccn2)nc1-c1ccccn1 [Example 203, 4-(pyridin-2-yl)-N-((tetrahydro-2H-pyran-4-yl)methyl)-2-(4-(trifluoromethyl)pyridin-2-ylamino) thiazole-5-carboxamide] | 500 to 5000
O=C(NC1CCCC1)c1sc(Nc2cc(C(F)(F)F)ccn2)nc1-c1ccccn1 [Example 204, N-cyclopentyl-4-(pyridin-2-yl)-2-(4-(trifluoromethyl)pyridin-2-ylamino) thiazole-5-carboxamide] | 500 to 5000
Cc1sc(Nc2cc(OC3CCOCC3)ccn2)nc1-c1ccccn1 [Example 205, 5-methyl-4-(pyridin-2-yl)-N-(4-(tetrahydro-2H-pyran-4-yloxy)pyridin-2-yl)thiazol-2-amine] | < 200
O=C(O)c1sc(Nc2cc(C(F)(F)F)ccn2)nc1-c1ccccn1 [Example 206, 4-(pyridin-2-yl)-2-(4-(trifluoromethyl)pyridin-2-ylamino) thiazole-5-carboxylic acid] | < 200
